The test system of one test is I-Ed molecules. The following applies: cited from earlier work.
The subject of another test is I-Ak molecules. The following applies: cited from earlier work.
For another test, the system named is I-Ek molecules. The following applies: cited from earlier work.
Another test deals with T cell response. The following applies: cited from earlier work.
Test [1] relates to antigen presentation by LNC to T cell hybridoma 1C5.1. The test can be described thus: Chloroquine treatment of irradiated LNC before T hybridoma activation. Type of test: cell-based. The following applies: C3H mice primed with 14 nmol/mouse HEL in CFA, 10^6 LNC/well; chloroquine 1-100 µM, hybridoma 1C5.1 (Fig. 3).
The test system of test [2] is T cell hybridoma 1C5.1 (I-Ak/HEL 46-61). Type of test: in vivo, C3H mice. Particulars: LNC from HEL-primed mice (not shown).
Test [3] deals with T cell hybridoma 2G7.1 (I-Ek/HEL 1-18). Type of test: cell-based, mouse. The following applies: read-out: Responsiveness: amount of HEL or peptide inducing 50% of the maximal response; hybridoma 2G7.1, restriction Ek; LK-35.2 cells as APC; mean of three to four experiments.
For test [4], the system named is T cell hybridoma 1H11.3 (I-Ed/HEL 108-116). Type of test: cell-based, mouse. Particulars: read-out: Responsiveness: amount of HEL or peptide inducing 50% of the maximal response; hybridoma 1H11.3, restriction Ed; LK-35.2 cells as APC; mean of three to four experiments.
The test system of test [5] is T cell hybridoma 1C5.1 (I-Ak/HEL 46-61). It is filed as cell-based, mouse. The following applies: read-out: Responsiveness: amount of HEL or peptide inducing 50% of the maximal response; hybridoma 1C5.1, restriction Ak; LK-35.2 cells as APC; mean of three to four experiments.
In test [6] the test system is T cell hybridoma 1H11.3 (I-Ed/HEL 108-116). Type of test: in vivo, C3H and DBA/2 mice. Particulars: DBA/2 (H-2d) mice, 7 nmol/mouse HEL-CFA, LNC day 8, no antigen added (Fig. 1).
For test [7], the system named is T cell hybridoma 2D4.1 (I-Ak/HEL 112-129). Type of test: cell-based, mouse. Particulars: read-out: Responsiveness: amount of HEL or peptide inducing 50% of the maximal response; hybridoma 2D4.1, restriction Ak; LK-35.2 cells as APC; mean of three to four experiments.
For test [8], the system named is T cell hybridoma 3A9 (I-Ak/HEL 46-61). It is filed as in vivo, C3H and DBA/2 mice. Particulars: C3H (H-2k) mice, 7 nmol/mouse HEL-CFA, LNC day 8, no antigen added (Fig. 1).
The test system is the same in test [9]. Type of test: cell-based, mouse. The following applies: read-out: Responsiveness: amount of HEL or peptide inducing 50% of the maximal response; hybridoma 3A9, restriction Ak; LK-35.2 cells as APC; mean of three to four experiments.

pEC50: −log10 of the molar value.

On to DRGDQSTDYGIFQINSR [ML 46-62], for which the “Binding to I-Ed molecules” value with I-Ed molecules is “failsto bind”. The “Binding to I-Ak molecules” value in the test on I-Ak molecules was “binds strongly”. Moreover, the “Binding to I-Ek molecules” value in the test on I-Ek molecules was “failsto bind”. Moreover, in the test with T cell response, the Immunogenicity in mice result is “nonimmunogenic”.

With `CCN(CC)CCCC(C)Nc1ccnc2cc(Cl)ccc12` (centres unmarked) [chloroquine], in test [1], the “Effect on antigen presentation by LNC from HEL-primed mice” value is reported as “failsto interfere”.

In the case of hen egg white lysozyme [HEL], the “Time after immunization of maximal antigen-presenting activity in LNC” value in [2] amounted to 8 days. Further, the pEC50 in [3] is 6.52; in test [4], 6.30; in test [5], 6.52; in test [7], 6.52; in test [9], 7.70. Besides, the “IL-2 production by 1H11.3 induced by LNC from primed mice” value in test [6] was “induce”. In addition, the “IL-2 production by 3A9 induced by LNC from primed mice” value in test [8] is “induce”.

Consider CNDGRTPGSRNLCN [HEL 64-77], for which the “Binding to I-Ak” value in the test on I-Ak molecules is on record as “does not bind”.
